The record followed here is US4977189A, “Substituted guanidinedicarbonyl derivatives” (American Cyanamid Company, priority 1988, dated 1990).

One experiment concerns Royal Hart mice. Description: Hypoxic Survival Test. The conditions noted are these: 10% oxygen; for responders at 10 mg/kg / responders at 50 mg/kg / responders at 100 mg/kg / responders at 200 mg/kg / responders at 25 mg/kg: Mus musculus, ip, 5 min, 30 minutes prior, survival after 5 minutes, read-out: % Survivors; for responders at 10 mg/kg: 10 mg/kg intraperitoneally; for responders at 50 mg/kg: 50 mg/kg intraperitoneally; for responders at 100 mg/kg: 100 mg/kg intraperitoneally; for responders at 200 mg/kg: 200 mg/kg intraperitoneally; for responders at 25 mg/kg: 25 mg/kg intraperitoneally. In kind it is in vivo, mouse (Royal Hart). The protocol: A useful in vivo test that measures how effectively central nervous system-acting drugs enhance survival in a hypoxic environment, presumably by improving the ratio of energy supply to demand is known as the Hypoxic Survival Test. […] Drugs are tested by intraperitoneally injecting groups of mice 30 minutes prior to placing them in a hypoxic mixture and measuring survival. The rationale of this test is that drugs which enhance survival under hypoxic conditions without concomitant, depression or sedative side effects, may do so by enhancing energy metabolism, or by preserving normal brain function under conditions of reduced energy metabolism. Given the dependence of the brain on a constant supply of energy, drugs which have this property may have many far-reaching therapeutic indications, including recovery from stroke and closed head injury, as well as reducing the deleterious effects of the aging central nervous system.
Groups of 20 Royal Hart mice (6 weeks of age) are injected intraperitoneally with test compound (1-200 mg/kg) 30 minutes prior to placing them in a hypoxic mixture (10% oxygen in 90% […]) and measuring survival after 5 minutes.
A separate group of 20 mice is injected intraperitoneally with saline solution (0.01 cc/g of body weight) and processed as described above.
Still another group of 20 mice is injected intraperitoneally with 0.125 mg/kg of physostigmine and processed as described above.

Experiment [1] relates to Brain-Specific Receptors (3H-benzodiazepine binding). The experiment is described as follows: Inhibition of the Binding of 3H-Benzodiazepine to Brain-Specific Receptors of Rats. Details: species or system rat (male albino, Wistar strain; whole cortex). The settings on record: 3H-diazepam (1.5 nM) or 3H-flunitrazepam (1.0 nM); rat cortex P2-fraction; 30 minutes in ice; test concentration not given. From the text:
A test utilized for the determination of anxiolytic activity is the measurement of the ability of test compounds to inhibit the binding of tritiated benzodiazepines to brain-specific recptors of warm-blooded animals. A modification of the method described by R. F. Squires, et al., Nature, 266, No. 21, pg 732 (April, 1977) and H. Mohler, et al., Science, 198, pg 849 (1977) was employed.
Male albino rats (Wistar strain, weighing 150-200 g each) were used. The test compounds were solubilized in either dimethylformamide, acetic acid, ethanol or hydrochloric acid.
Whole cortex of rats was homogenized gently in 20 volumes of ice-cold 0.32M sucrose, centrifuged twice at 1000 g for 10 minutes and then recentrifuged at 30,000 g for 20 minutes to produce a crude P2 -synaptosomal fraction. The P2 -fraction was either: (1) resuspended in twice the original volume in hypotonic 50 mM Tris.HCl (pH 7.4), or (2) resuspended in one-half the original volume in hypotonic 10 mM Tris.HCl (pH 7.4) and frozen (-20° C.) until time of use. Frozen P2 preparations were thawed and resuspended in four times the original homogenizing volume at time of assay.
The binding assay consisted of 300 μl of the P2 -fraction suspension (0.2-0.4 mg protein), 100 μl of test drug and 100 μl of ^3 H-diazepam (1.5 nM, final concentration) or ^3 H-flunitrazepam (1.0 nM, final concentration) which was added to 1.5 ml of 50 mM Tris.HCl (pH 7.4). Non-specific binding controls and total binding controls d 100 μl of diazepam (3 μM final concentration) and 100 μl of deionized water, respectively, in place of the test compound. Incubation for 30 minutes proceeded in ice and was terminated by filtration, under vacuum, through glass fiber filters. The filters were washed twice with 5 ml of ice-cold 50 mM Tris.HCl (pH 7.4) and placed in scintillation vials. After drying at 50°-60° C. for 30 minutes, 10 ml of diluent was added and the radioactivity determined in a scintillation counter.
Inhibition of binding was calculated by the difference between total binding and binding in the presence of test compound, divided by the total binding, X 100.

As for `NC(=O)c1ccc(NC(=NC(=O)c2cccs2)NC(=O)c2ccccc2)cc1` [N-[[[4-(Aminocarbonyl)phenyl]amino](benzoylamino)methylene]-2-thiophenecarboxamide], in the experiment on Royal Hart mice, the responders at 10 mg/kg was determined as 50% and the responders at 50 mg/kg amounted to 50%. For `CCN(CC)CCNC(=NC(=O)c1ccc(C(F)(F)F)cc1)NC(=O)c1ccc(C(F)(F)F)cc1` [N,N'-[[2-(Diethylaminoethyl]carbonimidoyl]bis[4-(trifluoromethyl)benzamide], in the experiment on Royal Hart mice, the responders at 10 mg/kg was found to be 45%, the responders at 50 mg/kg came to 70%, the responders at 100 mg/kg was determined as 65% and the responders at 200 mg/kg was 85%.

Regarding `NC(=O)c1ccc(NC(=NC(=O)c2ccc(C(F)(F)F)cc2)NC(=O)c2ccccc2)cc1` [N-[[[4-(Aminocarbonyl)phenyl]amino][benzoylamino]methylene]-4-(trifluoromethyl)benzamide], the responders at 50 mg/kg in the experiment on Royal Hart mice worked out at 45%.

Consider `COc1cc(C(=O)N=C(NC(=O)c2ccccc2)Nc2ccc(C(N)=O)cc2)cc(OC)c1OC` [N-[[[4-(Aminocarbonyl)phenyl]amino](benzoylamino)methylene]-3,4,5-trimethoxybenzamide], for which, in the experiment with Royal Hart mice, the responders at 10 mg/kg stood at 50% and the responders at 25 mg/kg is 50%. With `NC(=O)c1ccc(NC(=NC(=O)c2ccc(F)cc2)NC(=O)c2ccc(Br)cc2)cc1` [N-[[[4-(Aminocarbonyl)phenyl]amino][(4-bromobenzoyl)amino]methylene]-4-fluorobenzamide], in the experiment with Royal Hart mice, the responders at 25 mg/kg is 40% and the responders at 100 mg/kg was determined as 44%. On to `NC(=O)c1ccc(NC(=NC(=O)Cc2ccccc2)NC(=O)c2ccccc2)cc1` [N-[[[4-(Aminocarbonyl)phenyl]amino](benzoylamino)methylene]benzeneacetamide], for which, in experiment [1], the “% Inhibition” value is listed as 22%. Still for that read-out and setting: the same measure for `Cc1cccc(C(=O)NC(=Nc2ccc(C(=O)N(C)C)cc2)NC(=O)c2cccc(C)c2)c1` [4-[[Bis[(3-methylbenzoyl)amino]methylene]amino]-N,N-dimethylbenzamide]: 29%. Consider `NS(=O)(=O)c1ccc(CNC(=NC(=O)c2ccccc2)NC(=O)c2ccccc2)cc1` [N,N'-[[[4-(Aminosulfonyl)phenyl]methyl]carbonimidoyl]bisbenzamide], for which, in the experiment with Royal Hart mice, the responders at 10 mg/kg was determined as 50% and the responders at 100 mg/kg was 35%.

Consider `Cc1cccc(C(=O)N=C(NC(=O)c2ccccc2)Nc2ccc(C(N)=O)cc2)c1` [N-[[[4-(Aminocarbonyl)phenyl]amino](benzoylamino)methylene]-3-methylbenzamide], for which the “% Inhibition” value in experiment [1] was 33%. The same measure, in the same setting: the same measure for `Cc1cccc(C(=O)N=C(NC(=O)c2cccc(C)c2)Nc2cccc(C(N)=O)c2)c1` [N,N'-[[3-(Aminocarbonyl)phenyl]carbonimidoyl]bis[3-methylbenzamide]]: 17%.

`NC(=O)c1ccc(NC(=NC(=O)c2ccccc2)NC(=O)C=Cc2ccccc2)cc1` [N-[[[4-(Aminocarbonyl)phenyl]amino][(1-oxo-3-phenyl-2-propenyl)amino]methylene]benzamide]: the responders at 100 mg/kg in the experiment on Royal Hart mice came out at 40%. Regarding `COc1ccc(C(=O)NC(=NC(=O)c2ccc(C)cc2)Nc2ccccc2C(N)=O)cc1` [N-[[[2-(Aminocarbonyl)phenyl]amino][(4-methoxybenzoyl)amino]methylene]-4-methylbenzamide], the “% Inhibition” value in experiment [1] worked out at 10%. On to `CN(C)C(=O)c1ccc(NC(=NC(=O)c2ccccc2)NC(=O)c2ccccc2)cc1` [4-[[(Benzoylamino)(benzoylimino)methyl]amino]-N,N-dimethylbenzamide], for which the “% Inhibition” value in experiment [1] stood at 14%. Turning to `NC(=O)c1ccc(NC(=NC(=O)c2ccc(Br)cc2)NC(=O)c2ccccc2)cc1` [N-[[[4-(Aminocarbonyl)phenyl]amino](benzoylamino)methylene]-4-bromobenzamide], in the experiment on Royal Hart mice, the responders at 10 mg/kg turned out to be 42%, the responders at 25 mg/kg turned out to be 60% and the responders at 100 mg/kg came to 43%. With `CNC(=O)c1ccc(NC(=NC(=O)c2cccc(C)c2)NC(=O)c2cccc(C)c2)cc1` [N,N'[[4-[(Methylamino)carbonyl]phenyl]carbonimidoyl]bis[3-methylbenzamide]], the “% Inhibition” value in experiment [1] is 17%.

In the case of `COc1ccc(C(=O)NC(=NC(=O)c2ccsc2)Nc2ccc(C(N)=O)cc2)cc1` [N-[[[4-(Aminocarbonyl)phenyl]amino][(4-methoxybenzoyl)amino]methylene]-3-thiophenecarboxamide], the “% Inhibition” value in experiment [1] was 14%. `Cc1cccc(C(=O)N=C(NC(=O)c2cccc(C)c2)Nc2ccccc2C(N)=O)c1` [N,N'-[[2-(Aminocarbonyl)phenyl]carbonimidoyl]bis[3-methylbenzamide]]: in the experiment on Royal Hart mice, the responders at 50 mg/kg was 40% and the responders at 100 mg/kg came to 48%.

Turning to `Cc1ccc(C(=O)NC(=NC(=O)c2cccc(C)c2)Nc2ccc(C(N)=O)cc2)cc1` [N-[[[4-(Aminocarbonyl)phenyl]amino][(4-methylbenzoyl)amino]methylene]-3-methylbenzamide], the “% Inhibition” value in experiment [1] is listed as 85%.

Take `COc1ccc(C(=O)N=C(NC(=O)c2ccc(OC)cc2)Nc2ccc(C(N)=O)cc2)cc1` [N,N'-[[4-(Aminocarbonyl)phenyl]carbonimidoyl]bis[4-methoxybenzamide]]: the “% Inhibition” value in experiment [1] was 17%. Take `NC(=O)c1ccc(NC(=NC(=O)c2cccc(Br)c2)NC(=O)c2ccccc2)cc1` [N-[[[4-(Aminocarbonyl)phenyl]amino](benzoylamino)methylene]-3-bromobenzamide]: the responders at 10 mg/kg in the experiment on Royal Hart mice was found to be 50%. `COc1ccc(C(=O)N=C(NC(=O)c2ccc(F)cc2)Nc2ccc(C(N)=O)cc2)cc1` [N-[[[4-(Aminocarbonyl)phenyl]amino][(4-fluorobenzoyl)amino]methylene]-4-methoxybenzamide]: in the experiment with Royal Hart mice, the responders at 25 mg/kg was determined as 45%, the responders at 50 mg/kg worked out at 60% and the responders at 100 mg/kg came to 42%. In the case of `CNC(=O)Oc1ccc2c(c1)[C@]1(C)CCN(C)[C@@H]1N2C` [physostigmine, reference compound], the “physostigmine treated mice that survive” value in the experiment with Royal Hart mice (0.125 mg/kg intraperitoneally, after 5 minutes, saline control mice 5-20%) is recorded as 60-80%.

In the case of `COc1ccc(C(=O)N=C(NC(=O)c2ccc(C)cc2)Nc2ccc(C(N)=O)cc2)cc1` [N-[[[4-(Aminocarbonyl)phenyl]amino][4-methylbenzoyl)amino]methylene]-4-methoxybenzamide], in the experiment with Royal Hart mice, the responders at 100 mg/kg came to 43%.

Turning to `COc1ccc(C(=O)NC(=NC(=O)c2ccc(C(F)(F)F)cc2)Nc2ccc(C(N)=O)cc2)cc1` [N-[[[4-(Aminocarbonyl)phenyl]amino][(4-methoxybenzoyl)amino]methylene]-4-(trifluoromethyl)benzamide], in the experiment on Royal Hart mice, the responders at 50 mg/kg was 55% and the responders at 100 mg/kg was 47%. Consider `NC(=O)c1ccc(NC(=NC(=O)c2ccccc2)NC(=O)C23CC4CC(CC(C4)C2)C3)cc1` [N-[[[4-(Aminocarbonyl)phenyl]amino](benzoylamino)methylene]tricyclo[3.3.1.1^3.7]decane-1-carboxamide], for which the responders at 50 mg/kg in the experiment on Royal Hart mice worked out at 42%. With `COc1ccc(C(=O)NC(=NC(=O)c2cccc(C)c2)Nc2ccc(C(N)=O)cc2)cc1` [N-[[[4-(Aminocarbonyl)phenyl]amino][(4-methoxybenzoyl)amino]methylene]-3-methylbenzamide], in the experiment on Royal Hart mice, the responders at 10 mg/kg worked out at 50%, the responders at 50 mg/kg is 45%, the responders at 100 mg/kg stood at 50% and the responders at 200 mg/kg was found to be 45%.
